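Five compound concentrations were applied to cells in 96-well plates for 48 hours; endpoints were derived by simple linear interpolation of the resulting dose-response curve. GI50: concentration for 50% inhibition of growth.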 The source made the active and inactive calls. No stated cut-off is given here; in the data, active = GI50 up to about 1.1 µM and inactive = higher.
Key:
Assay in all cases: inhibition of tumour cell growth, NCI panel, 48 h
A549 = test system: A549
K562 = test system: K562
TK-10 = test system: TK-10
SK-MEL-28 = test system: SK-MEL-28
HCC 2998 = test system: HCC 2998
IGROV-1 = test system: IGROV-1
SW-620 = test system: SW-620
UACC-62 = test system: UACC-62
LOX IMVI = test system: LOX IMVI
Malme-3M = test system: Malme-3M
DMS-114 = test system: DMS-114
M14 = test system: M14
DMS-273 = test system: DMS-273
NCI-H522 = test system: NCI-H522
OVCAR-8 = test system: OVCAR-8
NCI-H23 = test system: NCI-H23
HL-60 = test system: HL-60
OVCAR-5 = test system: OVCAR-5
NCI-H460 = test system: NCI-H460
OVCAR-3 = test system: OVCAR-3
SK-OV-3 = test system: SK-OV-3
SNB-75 = test system: SNB-75
HCT-116 = test system: HCT-116
UO-31 = test system: UO-31
UACC-257 = test system: UACC-257
SF-295 = test system: SF-295
SN12C = test system: SN12C
A498 = test system: A498
SR = test system: SR
NCI-H226 = test system: NCI-H226
HOP-92 = test system: HOP-92
U-251 = test system: U-251
SNB-78 = test system: SNB-78
SNB-19 = test system: SNB-19
KM-20L2 = test system: KM-20L2
OVCAR-4 = test system: OVCAR-4
DLD-1 = test system: DLD-1
ACHN = test system: ACHN
HT-29 = test system: HT-29
EKVX = test system: EKVX
CCRF-CEM = test system: CCRF-CEM
HOP-62 = test system: HOP-62
MOLT-4 = test system: MOLT-4
HOP-18 = test system: HOP-18
M19-MEL = test system: M19-MEL
RXF 393 = test system: RXF 393
COLO 205 = test system: COLO 205
KM12 = test system: KM12
LXFL 529 = test system: LXFL 529
SF-539 = test system: SF-539
786-0 = test system: 786-0
CAKI-1 = test system: CAKI-1
RPMI-8226 = test system: RPMI-8226
SF-268 = test system: SF-268
HCT-15 = test system: HCT-15
SK-MEL-2 = test system: SK-MEL-2

Structure (SMILES): CC1CC(=O)C(C(O)CC2CC(=O)N(c3ccccc3)C(=O)C2)C(C)C1 (stereo unspecified)
- GI50 (A549): > 100 µM (inactive)
- GI50 (K562): > 100 µM (inactive)
- GI50 (TK-10): > 100 µM (inactive)
- GI50 (SK-MEL-28): > 100 µM (inactive)
- GI50 (HCC 2998): > 100 µM (inactive)
- GI50 (IGROV-1): > 100 µM (inactive)
- GI50 (SW-620): > 100 µM (inactive)
- GI50 (UACC-62): > 100 µM (inactive)
- GI50 (LOX IMVI): > 100 µM (inactive)
- GI50 (Malme-3M): > 100 µM (inactive)
- GI50 (DMS-114): > 100 µM (inactive)
- GI50 (M14): > 100 µM (inactive)
- GI50 (DMS-273): > 100 µM (inactive)
- GI50 (NCI-H522): > 100 µM (inactive)
- GI50 (OVCAR-8): > 100 µM (inactive)
- GI50 (NCI-H23): > 100 µM (inactive)
- GI50 (HL-60): > 100 µM (inactive)
- GI50 (OVCAR-5): > 100 µM (inactive)
- GI50 (NCI-H460): > 100 µM (inactive)
- GI50 (OVCAR-3): > 100 µM (inactive)
- GI50 (SK-OV-3): > 100 µM (inactive)
- GI50 (SNB-75): > 100 µM (inactive)
- GI50 (HCT-116): > 100 µM (inactive)
- GI50 (UO-31): > 100 µM (inactive)
- GI50 (UACC-257): > 100 µM (inactive)
- GI50 (SF-295): > 100 µM (inactive)
- GI50 (SN12C): > 100 µM (inactive)
- GI50 (A498): > 100 µM (inactive)
- GI50 (SR): > 100 µM (inactive)
- GI50 (NCI-H226): > 100 µM (inactive)
- GI50 (HOP-92): > 100 µM (inactive)
- GI50 (U-251): > 100 µM (inactive)
- GI50 (SNB-78): > 100 µM (inactive)
- GI50 (SNB-19): > 100 µM (inactive)
- GI50 (KM-20L2): > 100 µM (inactive)
- GI50 (OVCAR-4): > 100 µM (inactive)
- GI50 (DLD-1): > 100 µM (inactive)
- GI50 (ACHN): > 100 µM (inactive)
- GI50 (HT-29): > 100 µM (inactive)
- GI50 (EKVX): > 100 µM (inactive)
- GI50 (CCRF-CEM): > 100 µM (inactive)
- GI50 (HOP-62): > 100 µM (inactive)
- GI50 (MOLT-4): > 100 µM (inactive)
- GI50 (HOP-18): > 100 µM (inactive)
- GI50 (M19-MEL): > 100 µM (inactive)
- GI50 (RXF 393): > 100 µM (inactive)
- GI50 (COLO 205): > 100 µM (inactive)
- GI50 (KM12): > 100 µM (inactive)
- GI50 (LXFL 529): > 100 µM (inactive)
- GI50 (SF-539): > 100 µM (inactive)
- GI50 (786-0): > 100 µM (inactive)
- GI50 (CAKI-1): > 100 µM (inactive)
- GI50 (RPMI-8226): > 100 µM (inactive)
- GI50 (SF-268): > 100 µM (inactive)

Structure (SMILES): NC(=O)c1csc(C2CCC(CO)O2)n1 (stereo unspecified)
- GI50 (A549): > 100 µM (inactive)
- GI50 (K562): > 100 µM (inactive)
- GI50 (TK-10): > 100 µM (inactive)
- GI50 (SK-MEL-28): > 100 µM (inactive)
- GI50 (HCC 2998): > 100 µM (inactive)
- GI50 (IGROV-1): > 100 µM (inactive)
- GI50 (SW-620): > 100 µM (inactive)
- GI50 (UACC-62): > 100 µM (inactive)
- GI50 (LOX IMVI): > 100 µM (inactive)
- GI50 (Malme-3M): > 100 µM (inactive)
- GI50 (DMS-114): > 100 µM (inactive)
- GI50 (M14): > 100 µM (inactive)
- GI50 (DMS-273): > 100 µM (inactive)
- GI50 (NCI-H522): > 100 µM (inactive)
- GI50 (OVCAR-8): > 100 µM (inactive)
- GI50 (NCI-H23): > 100 µM (inactive)
- GI50 (HL-60): > 100 µM (inactive)
- GI50 (OVCAR-5): > 100 µM (inactive)
- GI50 (NCI-H460): > 100 µM (inactive)
- GI50 (OVCAR-3): > 100 µM (inactive)
- GI50 (SK-OV-3): > 100 µM (inactive)
- GI50 (HCT-15): > 100 µM
- GI50 (HCT-116): > 100 µM (inactive)
- GI50 (UO-31): > 100 µM (inactive)
- GI50 (UACC-257): > 100 µM (inactive)
- GI50 (SF-295): > 100 µM (inactive)
- GI50 (SN12C): > 100 µM (inactive)
- GI50 (A498): > 100 µM (inactive)
- GI50 (NCI-H226): > 100 µM (inactive)
- GI50 (HOP-92): > 100 µM (inactive)
- GI50 (U-251): > 100 µM (inactive)
- GI50 (SNB-78): > 100 µM (inactive)
- GI50 (SNB-19): > 100 µM (inactive)
- GI50 (KM-20L2): > 100 µM (inactive)
- GI50 (OVCAR-4): > 100 µM (inactive)
- GI50 (ACHN): > 100 µM (inactive)
- GI50 (HT-29): > 100 µM (inactive)
- GI50 (EKVX): > 100 µM (inactive)
- GI50 (CCRF-CEM): > 100 µM (inactive)
- GI50 (HOP-62): > 100 µM (inactive)
- GI50 (MOLT-4): > 100 µM (inactive)
- GI50 (HOP-18): > 100 µM (inactive)
- GI50 (M19-MEL): > 100 µM (inactive)
- GI50 (COLO 205): > 100 µM (inactive)
- GI50 (KM12): > 100 µM (inactive)
- GI50 (LXFL 529): > 100 µM (inactive)
- GI50 (SF-539): > 100 µM (inactive)
- GI50 (786-0): > 100 µM (inactive)
- GI50 (CAKI-1): > 100 µM (inactive)
- GI50 (SK-MEL-2): > 100 µM (inactive)
- GI50 (RPMI-8226): > 100 µM (inactive)
- GI50 (SF-268): > 100 µM (inactive)

Source: ChEMBL document CHEMBL1201862, “PubChem BioAssay data set” (2004)
